Experimental data from ChEMBL document CHEMBL1132861, “Synthesis, radiolabelling and biological characterization of (D)-7-iodo-N-(1-phosphonoethyl)-5-aminomethylquinoxaline-2,3-dione, a glycine-binding site antagonist of NMDA receptors” (Bioorg Med Chem Lett, 2000).
Each block holds one molecule with its values, some of them ahead of it.

Experiments:
[1] = molecular target: Glutamate receptor ionotropic, NMDA 1 (Homo sapiens, UniProt Q05586); experiment: Compound was evaluated for its binding affinity for the glycine binding site on N-methyl-D-aspartate glutamate receptor by using [3H]MDL-105519 binding assay
[2] = molecular target: Glutamate receptor ionotropic kainate; experiment: Compound has been evaluated for its binding affinity towards kainate by displacing the radioligand [3H]kainate; assay type: protein-complex assay
[3] = molecular target: Glutamate [NMDA] receptor; experiment: Compound has been evaluated for its binding affinity towards N-methyl-D-aspartate glutamate receptor by displacing the radioligand [3H]CGP-39653; assay type: protein-complex assay
[4] = system: Mus musculus; experiment: Percent protection offered by the compound (10 mg/kg) in maximal electroshock test in mice, 60 min after intravenous administration; assay type: functional
[5] = molecular target: Glutamate receptor ionotropic AMPA (Homo sapiens, UniProt P42261+P42262+P42263+P48058); experiment: Compound has been evaluated for its binding affinity towards Ionotropic glutamate receptor AMPA by displacing the radioligand [3H]AMPA; assay type: protein-complex assay
[6] = system: Mus musculus; experiment: Effective dose of the intravenously administered compound, protecting the mice in the maximal electroshock test; assay type: functional; conditions: iv
[7] = molecular target: Glutamate [NMDA] receptor; experiment: Compound has been evaluated for its binding affinity towards N-methyl-D-aspartate glutamate receptor by displacing the radioligand [3H]MK-801; assay type: protein-complex assay
[8] = molecular target: Glutamate receptor ionotropic kainate (Homo sapiens) (UniProt P39086+Q16478+Q16099+Q13002+Q13003); experiment: Inhibition of binding of [3H]kainate to kainate at 10 uM compound concentration; assay type: protein-complex assay
[9] = species: Mus musculus; experiment: Biodistribution of the injected compound in lung of female BALB/C mice for 0.5 hours; assay type: ADME, organism-based; conditions: in vivo
[10] = species: Mus musculus; experiment: Biodistribution of the injected compound in intestines of female BALB/C mice for 2.5 hours; assay type: ADME, organism-based, Intestine; conditions: in vivo
[11] = species: Mus musculus; experiment: Biodistribution of the injected compound in bone of female BALB/C mice for 0.5 hours; assay type: ADME, organism-based, Bone element; conditions: in vivo
[12] = species: Mus musculus; experiment: Biodistribution of the injected compound in bone of female BALB/C mice for 5 hours; assay type: ADME, organism-based, Bone element; conditions: in vivo
[13] = species: Mus musculus; experiment: Biodistribution of the injected compound in blood of female BALB/C mice for 2.5 hours; assay type: ADME, organism-based; conditions: in vivo
[14] = species: Mus musculus; experiment: Biodistribution of the injected compound in brain of female BALB/C mice for 2.5 hours; assay type: ADME, organism-based; conditions: in vivo
[15] = Octanol/water distribution coefficient at pH 7.4; assay type: physicochemical
[16] = species: Mus musculus; experiment: Biodistribution of the injected compound in liver of female BALB/C mice for 5 hours; assay type: ADME, organism-based; conditions: in vivo
[17] = species: Mus musculus; experiment: Biodistribution of the injected compound in heart of female BALB/C mice for 2.5 hours; assay type: ADME, organism-based; conditions: in vivo
[18] = species: Mus musculus; experiment: Biodistribution of the injected compound in heart of female BALB/C mice for 5 hours; assay type: ADME, organism-based; conditions: in vivo
[19] = species: Mus musculus; experiment: Biodistribution of the injected compound in muscle of female BALB/C mice for 2.5 hours; assay type: ADME, organism-based, Muscle tissue; conditions: in vivo
[20] = species: Mus musculus; experiment: Biodistribution of the injected compound in muscle of female BALB/C mice for 0.5 hours; assay type: ADME, organism-based, Muscle tissue; conditions: in vivo
[21] = Octanol/water distribution coefficient at pH 7.5; assay type: physicochemical
[22] = species: Mus musculus; experiment: Biodistribution of the injected compound in brain of female BALB/C mice for 5 hours; assay type: ADME, organism-based; conditions: in vivo
[23] = species: Mus musculus; experiment: Biodistribution of the injected compound in liver of female BALB/C mice for 0.5 hours; assay type: ADME, organism-based; conditions: in vivo
[24] = species: Mus musculus; experiment: Biodistribution of the injected compound in heart of female BALB/C mice for 0.5 hours; assay type: ADME, organism-based; conditions: in vivo
[25] = species: Mus musculus; experiment: Biodistribution of the injected compound in stomach of female BALB/C mice for 5 hours; assay type: ADME, organism-based; conditions: in vivo
[26] = Octanol/water distribution coefficient at pH 5.5; assay type: physicochemical
[27] = species: Mus musculus; experiment: Biodistribution of the injected compound in intestines of female BALB/C mice for 0.5 hours; assay type: ADME, organism-based, Intestine; conditions: in vivo
[28] = species: Mus musculus; experiment: Biodistribution of the injected compound in stomach of female BALB/C mice for 0.5 hours; assay type: ADME, organism-based; conditions: in vivo
[29] = species: Mus musculus; experiment: Biodistribution of the injected compound in intestines of female BALB/C mice for 5 hours; assay type: ADME, organism-based, Intestine; conditions: in vivo
[30] = Octanol/water distribution coefficient at pH 4; assay type: physicochemical
[31] = species: Mus musculus; experiment: Biodistribution of the injected compound in blood of female BALB/C mice for 0.5 hours; assay type: ADME, organism-based; conditions: in vivo
[32] = species: Mus musculus; experiment: Biodistribution of the injected compound in spleen of female BALB/C mice for 2.5 hours; assay type: ADME, organism-based; conditions: in vivo
[33] = species: Mus musculus; experiment: Biodistribution of the injected compound in stomach of female BALB/C mice for 2.5 hours; assay type: ADME, organism-based; conditions: in vivo
[34] = species: Mus musculus; experiment: Biodistribution of the injected compound in kidneys of female BALB/C mice for 0.5 hours; assay type: ADME, organism-based, Kidney; conditions: in vivo
[35] = species: Mus musculus; experiment: Biodistribution of the injected compound in brain of female BALB/C mice for 0.5 hours; assay type: ADME, organism-based; conditions: in vivo
[36] = Octanol/water distribution coefficient at pH 6.5; assay type: physicochemical
[37] = species: Mus musculus; experiment: Biodistribution of the injected compound in muscle of female BALB/C mice for 5 hours; assay type: ADME, organism-based, Muscle tissue; conditions: in vivo
[38] = species: Mus musculus; experiment: Biodistribution of the injected compound in bone of female BALB/C mice for 2.5 hours; assay type: ADME, organism-based, Bone element; conditions: in vivo
[39] = species: Mus musculus; experiment: Biodistribution of the injected compound in kidneys of female BALB/C mice for 2.5 hours; assay type: ADME, organism-based, Kidney; conditions: in vivo
[40] = species: Mus musculus; experiment: Biodistribution of the injected compound in lung of female BALB/C mice for 5 hours; assay type: ADME, organism-based; conditions: in vivo
[41] = Octanol/water distribution coefficient at pH 4.8; assay type: physicochemical
[42] = species: Mus musculus; experiment: Biodistribution of the injected compound in spleen of female BALB/C mice for 5 hours; assay type: ADME, organism-based; conditions: in vivo
[43] = species: Mus musculus; experiment: Biodistribution of the injected compound in blood of female BALB/C mice for 5 hours; assay type: ADME, organism-based; conditions: in vivo
[44] = species: Mus musculus; experiment: Biodistribution of the injected compound in spleen of female BALB/C mice for 0.5 hours; assay type: ADME, organism-based; conditions: in vivo
[45] = Octanol/water distribution coefficient at pH 3; assay type: physicochemical
[46] = species: Mus musculus; experiment: Biodistribution of the injected compound in kidneys of female BALB/C mice for 5 hours; assay type: ADME, organism-based, Kidney; conditions: in vivo
[47] = species: Mus musculus; experiment: Biodistribution of the injected compound in liver of female BALB/C mice for 2.5 hours; assay type: ADME, organism-based; conditions: in vivo
[48] = species: Mus musculus; experiment: Biodistribution of the injected compound in lung of female BALB/C mice for 2.5 hours; assay type: ADME, organism-based; conditions: in vivo

IC50 [1]: 8 nM
SMILES: C[C@@H](NCc1cc(C(F)(F)F)cc2[nH]c(=O)c(=O)[nH]c12)P(=O)(O)O

IC50 [2]: 2700 nM
IC50 [3]: > 10000 nM
IC50 [1]: 5 nM
IC50 [5]: 3000 nM
IC50 [7]: > 10000 nM
SMILES: C[C@@H](NCc1cc(Br)cc2nc(O)c(O)nc12)P(=O)(O)O
Protection [4]: 60%
ED50 [6]: 5 mg/kg

IC50 [1]: 6 nM
SMILES: C[C@@H](NCc1cc(Cl)cc2nc(O)c(O)nc12)P(=O)(O)O

IC50 [1]: 32 nM
SMILES: C[C@@H](NCc1cc([N+](=O)[O-])cc2[nH]c(=O)c(=O)[nH]c12)[P+]([O-])(O)O

inhibition [8]: 49%
SMILES: C[C@@H](NCc1cc(I)cc2nc(O)c(O)nc12)P(=O)(O)O
Protection [4]: 20%
ED50 [6]: 10 mg/kg

IC50 [1]: 9 nM
SMILES: C[C@@H](NCc1cc(F)cc2[nH]c(=O)c(=O)[nH]c12)P(=O)(O)O

IC50 [1]: 76 nM
SMILES: C[C@@H](NCc1cc(C#N)cc2[nH]c(=O)c(=O)[nH]c12)P(=O)(O)O

Injected dose/g tissue [9]: 0.96%
Injected dose/g tissue [10]: 0.22%
Injected dose/g tissue [11]: 1.46%
Injected dose/g tissue [12]: 0.78%
Injected dose/g tissue [13]: 0.54%
Injected dose/g tissue [14]: 0.01%
logD [15]: -2.5
Injected dose/g tissue [16]: 0.43%
Injected dose/g tissue [17]: 0.93%
Injected dose/g tissue [18]: 0.82%
Injected dose/g tissue [19]: 0.21%
Injected dose/g tissue [20]: 0.4%
logD [21]: -1.8
Injected dose/g tissue [22]: 0.01%
Injected dose/g tissue [23]: 0.92%
Injected dose/g tissue [24]: 1.34%
Injected dose/g tissue [25]: 0.22%
logD [26]: -1.6
Injected dose/g tissue [27]: 0.44%
Injected dose/g tissue [28]: 0.58%
Injected dose/g tissue [29]: 0.2%
IC50 [3]: > 10000 nM
logD [30]: -1.2
IC50 [1]: 8 nM
Injected dose/g tissue [31]: 1.1%
Injected dose/g tissue [32]: 0.23%
Injected dose/g tissue [33]: 0.23%
Injected dose/g tissue [34]: 6.68%
Injected dose/g tissue [35]: 0.03%
logD [36]: -1.7
IC50 [5]: 340 nM
Injected dose/g tissue [37]: 0.19%
Injected dose/g tissue [38]: 0.92%
Injected dose/g tissue [39]: 3.29%
Injected dose/g tissue [40]: 0.38%
logD [41]: -1.5
Injected dose/g tissue [42]: 0.21%
Injected dose/g tissue [43]: 0.49%
Injected dose/g tissue [44]: 0.46%
logD [45]: -0.8
Injected dose/g tissue [46]: 2.98%
IC50 [7]: > 10000 nM
Injected dose/g tissue [47]: 0.49%
Injected dose/g tissue [48]: 0.4%
SMILES: C[C@@H](NCc1cc(I)cc2[nH]c(=O)c(=O)[nH]c12)P(=O)(O)O
